Values quoted from earlier work, collected in patent US20090118350A1, “Biomarkers for Identifying Efficacy of Tegaserod in Patients with Chronic Constipation” (priority 2005, published 2009).
Where two headings read alike, the source gives them in different places.

Tested on: healthy volunteers, patients with IBS-C, patients with chronic constipation
Conditions: cited from earlier work

[H]/N=C(/NCCCCC)N/N=C/c1c[nH]c2ccc(OC)cc12 [tegaserod, Tegaserod]
colonic transit time (healthy volunteers (Degen et al. 2001)): significantly increase colonic transit time | colonic transit time (patients with IBS-C (Prather et al. 2000)): significantly increase colonic transit time | colonic transit time (patients with chronic constipation (Johanson et al. 2004)): significantly increase colonic transit time
